Data set [1] can be described thus: Cytotoxicity against HepG2. It counts as cell-based. As to conditions: human, HepG2 cells (ATCC HB-8065), 5 days exposure. As to the method:
Cytotoxicity against HepG2 (ATCC# HB-8065), a human liver cancer cell line, was determined as previously described earlier (Manjunatha et al., 2015). Briefly, cells were seeded at a density of 10^5 cells per well, incubated at 37° C. for 24 h and exposed to two-fold serially-diluted compounds for 5 days. Cell viability was monitored using the Cell Proliferation Kit II (Invitrogen). The cytotoxicity values of selected compounds are reported in the fifth column [HepG2 CC50 (μM)] of Table II.

Data set [2] concerns Cryptosporidium parvum. As to the kind of experiment: Cytopathic effect (CPE) based assay, C. parvum infected HCT-8 cells. As to conditions: HCT-8 host cell viability (CellTiter-Glo), 48 hours treatment, read-out: Cp CPE EC50. As to the method: Human ileocecal colorectal adenocarcinoma cells (HCT-8 [HRT-18] ATCC, CCL-34) were maintained in T-175 flasks (Corning, 431080) in complete growth medium (RPMI-1640 medium (Gibco, 11875) supplemented with 10% heat-inactivated horse serum (Gibco, 26050), 1×MEM non-essential amino acids (Gibco, 11140), 10 mM HEPES (Gibco, 15630), 100 units/mL penicillin, and 100 units/mL streptomycin) at 37° C. and 5% CO2 in a humidified incubator. Cultures were passaged twice weekly using 10 mL of 1×Phosphate-Buffered Saline (PBS) without Ca^2+ and Mg^2+ (Gibco, 20012) for washing and 3-5 mL per T-175 flask of TrypLE Express Enzyme (Gibco, 12604) for dissociation of adherent cells.
Cryptosporidium parvum oocysts purchased from the Sterling Laboratory, University of Arizona (Iowa isolate) were purified from infected calf feces using discontinuous sucrose and cesium chloride centrifugation gradients and stored in PBS solution containing 0.01% Tween 20, 100 units/mL penicillin and 100 units/mL gentamicin.
Excystation and infection protocols were developed following established methods with some modifications (Gut & Nelson, 1999, Upton et aL, 1995, Bessoff et aL, 2013). Briefly, oocysts were primed in 1 mL of 10 mM hydrochloric acid in 1× Hank's Balanced Salt Solution (HBSS) (Gibco, 14025) for 10 minutes with agitation at 1000 rpm, 37° C. on an Eppendorf thermomixer, then washed twice with 1 mL of room temperature non-acidic 1× HBSS by centrifugation at 13,000 rpm for 3 minutes at 25° C. Primed oocysts were further excysted at a concentration of 1×10^6 oocysts/μL in parasite infection medium consisting of a pre-warmed and pre-gassed 1:1 formulation of Leibovitz's L-15 medium (Gibco, 11415) and UltraCULTURE medium (Lonza, 12-725F) supplemented with 2 mM sodium taurocholate (Sigma, 86339-1), 10% heat-inactivated horse serum, and 200 μM L-ascorbic acid (Sigma, 95210) at 25° C. for 10 minutes. HCT-8 monolayer cells were infected with excysted cryptosporidium at a specified multiplicity of infection (MOI). All dilutions for subsequent assays were performed in parasite infection medium without sodium taurocholate. Pre-excysted oocysts were enumerated microscopically using a C-Chip disposable hemocytometer (NanoEnTek, DHC-N01).
Compound powders were dissolved in neat DMSO (Fisher, D4121) to 10 mM and stored at 4° C. prior to dilution into source plates. Dilutions were carried out using a Microlab STAR liquid handler (Hamilton) to obtain compound source plates containing the ten-point or eight-point three fold dilutions starting from 10 mM in duplicates. Source plates were stored at 4° C. prior to spotting into assay plates. Before administration, all compound source plates were equilibrated to room temperature. A specified volume of compounds from source plate were spotted to assay plate using an Echo Acoustic liquid handler (LABCYTE, 550) so that the final DMSO concentration was less than 0.5%. Each assay plate a specified number of DMSO-treated negative control wells and a well-studied potent active compound at 100 nM as positive control. As a quality control, all positive and negative-control wells were used to calculate a Z′-value and signal to noise ratio (S:N) for each plate.
Cryptosporidium spp are obligate-intracellular parasites that infect intestinal epithelial cells and the host cell is killed upon parasite egress. […] The loss of epithelial cells is due to both rapid parasite invasion/multiplication/egress and also pro-inflammatory immune response (Adams et al., 1994, Griffiths et al., 1994). We have observed a consistent cytopathic effect (CPE) in HCT-8 cells with C. spp infection the loss of viability of the host cells using CellTiter-Glo reagent.
Confluent HCT-8 cells in T-175 flasks were directly infected with excysted oocysts at an MOI (host to parasite) of 1:2 for C. parvum and 1:4 for C. hominis. The number of host-cells is determined using a NucleoCounter (Chemometec, NC-100) in a control flask. […]

A word on the CC50: it is the concentration at which the toxic effect on the cells reaches its halfway point. Read a high CC50 as lower toxicity to the cells. Broadly, the EC50 is the concentration giving half of the maximal effect.

Turning to `CNC(=O)c1ccc(-c2cnn3ccc(C(=O)N(c4ccc(C(N)=O)cn4)C4CC4)cc23)cc1` [Example 129], the CC50 at 5 days in data set [1] was over 50 µM. In addition, in data set [2], the EC50 was over 20 µM.

In data set [1], `CNC(=O)c1ccc(-c2cnn3ccc(C(=O)N(c4ccc(F)c(F)c4)C4CC4)cc23)cc1` [Example 130] came in with a CC50 at 5 days of over 50 µM. The EC50 in data set [2] turned out to be 0.235 µM.

Take `CNC(=O)c1ccc(-c2cnn3ccc(C(=O)N(c4ccc(C(F)(F)F)cn4)C4CC4)cc23)cc1` [Example 132]: it took 17.3 µM to reach half-maximal cytotoxicity in data set [1] (CC50 at 5 days). Moreover, the EC50 in data set [2] amounted to 0.089 µM.

`CNC(=O)c1ccc(-c2cnn3ccc(C(=O)N(c4ccc(C#N)cn4)C4CC4)cc23)nc1` [Example 133]: the midpoint of cytotoxicity in data set [1], the CC50 at 5 days, lay at 20.9 µM. The EC50 in data set [2] was found to be 2.18 µM.

In data set [1], `N#Cc1ccc(N(C(=O)c2ccn3ncc(-c4ccc(C(N)=O)cc4)c3c2)C2CC2)cc1` [Example 134] had a CC50 at 5 days of 7.24 µM. In addition, the EC50 in data set [2] is 0.042 µM.

In data set [1], `NC(=O)c1ccc(-c2cnn3ccc(C(=O)N(c4ccc(F)c(F)c4)C4CC4)cc23)cc1` [Example 135] yielded a CC50 at 5 days of 31.1 µM. Moreover, in data set [2], the EC50 is 0.279 µM.

Turning to `CNC(=O)c1ccc(-c2cnn3ccc(C(=O)N(c4ccc(C)cn4)C4CC4)cc23)cc1` [Example 136], the CC50 at 5 days in data set [1] came out at 6.32 µM. In data set [2], the EC50 was determined as 0.43 µM.

On to `CNC(=O)c1ccc(-c2cnn3ccc(C(=O)N(c4ccc(C#N)cc4)C4CC4)cc23)cn1` [Example 137], for which half-maximal cytotoxicity in data set [1] (CC50 at 5 days) was put at 2.19 µM. For the same compound, the EC50 in data set [2] is 0.35 µM.

In data set [1], `N#Cc1ccc(N(C(=O)c2ccn3ncc(-c4ccc(C(N)=O)nc4)c3c2)C2CC2)cc1` [Example 138] came in with a CC50 at 5 days of 8.1 µM. Moreover, the EC50 in data set [2] worked out at 0.49 µM.

In the case of `N#Cc1ccc(N(C(=O)c2ccn3ncc(-c4ccc(C(N)=O)cn4)c3c2)C2CC2)nc1` [Example 139], the CC50 at 5 days in data set [1] is 16.7 µM. Also, in data set [2], the EC50 was 2.07 µM.

With `CCN(C(=O)c1ccn2ncc(-c3ccc(S(=O)(=O)NC)cc3)c2c1)c1ccc(C#N)cn1` [Example 140], the CC50 at 5 days in data set [1] was determined as 26.1 µM. Also, in data set [2], the EC50 was determined as 10.3 µM.

`CNC(=O)c1ccc(-c2cnn3ccc(C(=O)N(c4ccc(C#N)cc4)C4CC4)cc23)nc1` [Example 141] registered a CC50 at 5 days in data set [1] of 20.8 µM. In data set [2], the EC50 worked out at 0.344 µM.

As for `N#Cc1ccc(N(C(=O)c2ccn3ncc(-c4ccc(C(N)=O)cn4)c3c2)C2CC2)cc1` [Example 142], in data set [1], the CC50 at 5 days is 18.3 µM. The EC50 in data set [2] stood at 0.379 µM.

Compound `CNC(=O)c1ccc(-c2cnn3ccc(C(=O)N(c4ccc(Cl)cc4)C4CC4)cc23)cn1` [Example 143] came in with a 50% cytotoxic concentration (CC50) at 5 days in data set [1] of 17.5 µM. Besides, the EC50 in data set [2] was determined as 0.079 µM.

As for `CNC(=O)c1ccc(-c2cnn3ccc(C(=O)N(c4ccc(C#N)cn4)C4CCC4)cc23)cn1` [Example 144], in data set [1], the midpoint of cytotoxicity, the CC50 at 5 days, lay at 7.69 µM. Moreover, the EC50 in data set [2] came out at 1.79 µM.

Turning to `CNC(=O)c1ccc(-c2cnn3ccc(C(=O)N(c4ccc(C#N)cc4)C4CCC4)cc23)cn1` [Example 145], the midpoint of cytotoxicity in data set [1], the CC50 at 5 days, lay at 16.8 µM. Further, the EC50 in data set [2] was determined as 0.417 µM.

As to `CNC(=O)c1ccc(-c2cnn3ccc(C(=O)N(c4ccc(C#N)cc4)C(C)C)cc23)cn1` [Example 146], the CC50 at 5 days in data set [1] was 32.1 µM. Moreover, the EC50 in data set [2] amounted to 0.329 µM.

`CNC(=O)c1ccc(-c2cnn3ccc(N(C(=O)c4ccc(C#N)cn4)C4CC4)cc23)cc1` [Example 147] returned a CC50 at 5 days in data set [1] of 32.7 µM. For the same compound, in data set [2], the EC50 was over 20 µM.

As to `CNC(=O)c1ccc(-c2cnn3ccc(C(=O)N(c4ccc(C#N)cn4)C(C)C)cc23)cn1` [Example 148], in data set [1], the half-maximal cytotoxic concentration (CC50) at 5 days is 20.1 µM. In addition, the EC50 in data set [2] was 1.86 µM.

In data set [1], `CNC(=O)c1ccc(-c2cnn3ccc(C(=O)N(c4ccc(F)cn4)C(C)C)cc23)cc1` [Example 151] registered a CC50 at 5 days of 29.2 µM. Further, the EC50 in data set [2] came to 2.31 µM.

In data set [1], `CNC(=O)c1ccc(-c2cnn3ccc(C(=O)N(c4ccc(C(F)(F)F)cn4)C(C)C)cc23)cn1` [Example 152] registered a CC50 at 5 days of 14.9 µM. Moreover, the EC50 in data set [2] turned out to be 0.456 µM.

In data set [1], `CNC(=O)c1ccc(-c2cnn3ccc(C(=O)N(c4ccc(C#N)cn4)C(C)C)cc23)nc1` [Example 154] returned a cytotoxic concentration (CC50) at 5 days of 45.7 µM. Besides, the EC50 in data set [2] is 0.964 µM.

The compound `CNC(=O)c1ccc(-c2cnn3ccc(C(=O)N(c4ccc(C#N)cn4)C4CCC4)cc23)nc1` [Example 155] gave a cytotoxic concentration (CC50) at 5 days in data set [1] of over 50 µM. Also, in data set [2], the EC50 came to 1.01 µM.

The compound `CNC(=O)c1ccc(-c2cnn3ccc(C(=O)N(c4ccc(F)cn4)C(C)C)cc23)cn1` [Example 156] yielded a CC50 at 5 days in data set [1] of over 50 µM. Also, the half-maximal effective concentration (EC50) in data set [2] was found to be 15.6 µM.

In data set [1], `CCN(C(=O)c1ccn2ncc(-c3ccc(C(=O)NC)nc3)c2c1)c1ccc(C(F)(F)F)cn1` [Example 157] gave a CC50 at 5 days of 8.96 µM. Moreover, the EC50 in data set [2] turned out to be 0.295 µM.

`CCN(C(=O)c1ccn2ncc(-c3ccc(S(C)(=O)=O)cc3)c2c1)c1ccc(C#N)cn1` [Example 158] yielded a CC50 at 5 days in data set [1] of 23 µM. Moreover, in data set [2], the EC50 came to 3.75 µM.

On to `CCN(C(=O)c1ccn2ncc(-c3ccc(C(=O)NC)nc3)c2c1)c1ccc(F)cn1` [Example 159], for which, in data set [1], it took 9.81 µM to reach half-maximal cytotoxicity (CC50 at 5 days). Moreover, the EC50 in data set [2] stood at 5.37 µM.

Regarding `CNC(=O)c1ccc(-c2cnn3ccc(C(=O)N(c4ccc(C(F)(F)F)cn4)C4CCC4)cc23)cn1` [Example 161], the 50% cytotoxic concentration (CC50) at 5 days in data set [1] was found to be 1.22 µM. For the same compound, the EC50 in data set [2] was 0.775 µM.

For the compound `CNC(=O)c1ccc(-c2cnn3ccc(S(=O)(=O)N(C)c4ccc(C#N)cn4)cc23)cc1` [Example 163], the half-maximal cytotoxic concentration (CC50) at 5 days in data set [1] was found to be 8.48 µM. In data set [2], the EC50 was 0.197 µM.

`N#Cc1ccc(N(C2CC2)S(=O)(=O)c2ccn3ncc(-c4ccc(C(N)=O)cc4)c3c2)nc1` [Example 165] gave a CC50 at 5 days in data set [1] of 6.37 µM. In addition, the EC50 in data set [2] worked out at 0.607 µM.

(Values after patent publication US20190030009A1, “COMPOUNDS AND COMPOSITIONS FOR THE TREATMENT OF CRYPTOSPORIDIOSIS” (Novartis AG, priority 2016, published 2019).)
